The source of these data is patent EP0727211A1, “Use of src SH2 specific compounds to treat a bone resorption disease” (SMITHKLINE BEECHAM CORPORATION, priority 1995, dated 1996).

In one experiment the target is T1, human fyn SH2 domain (Homo sapiens, UniProt P06241).
T1 construct: SH2 domain of human fyn (amino acids 143-252); made in house; host or cells: E. coli (pGEX-2T)
Nature of the experiment: SH2 domain / pY peptide binding assay (ELISA-based, 96 well plate), fyn SH2. The settings on record: for Ki: Ki calculated from IC50 by the expanded equation, Table II; for IC50: cloned human SH2 domain fusion protein, 0.1 uM biotinylated pY peptide, Table I. As to the method:
(§1) The inhibitory activity of compounds at the different human SH2 domains was determined in vitro using SH2 domains expressed as fusion proteins in E. coli. The SH2 domains used herein were the human forms of the src SH2 domain, Grb2 SH2 domain, lck SH2 domain, fyn SH2 domain, SH-PTP2 SH2 domain, p85 SH2 domain and hcp SH2 domain.
(§2) Fusion proteins having the structure GST-X-SH2 were prepared as described in the GST gene fusion kit system available from Pharmacia (New Jersey). GST is the tagging sequence glutathione s-transferase epitope (SEQ ID NO: 8) for fyn, Grb2 and SH-PTP2 and is the tagging sequence glutathione s-transferase epitope (SEQ ID NO: 9) for p85. SH2 refers to the SH2 domains of fyn, Grb2, p85 and SH-PTP2 which were expressed and purified using glutathione Sepharose 4B (Pharmacia) according to "Current Protocols in Molecular Biology", ed. FM Ausubel et al., pub. John Wiley and Sons, Inc., (1995), p 16.7.1. X is an appropriate linker, preferably of 6 to 21 base pairs, used to keep the SH2 construct in frame and complement cloning. As such, the sequence of X is not critical. One skilled in the art can readily construct the appropriate linker. The DNA sequence encoding each GST-X-SH2 fusion protein was designed such that the indicated restriction sites (BamH1 and EcoRI) flank the SH2 region. The vector used in the instant experiments was the E. coli expression vector pGEX-2T (Pharmacia) for fyn, Grb2 and SH-PTP2, and pGEX-3X (Pharmacia) for p85. Each of these vectors result in SH2 constructs having additional C-terminal amino acids as described below.
The sequence encoding the SH2 domain of human fyn (amino acids 143-252) (Yamamoto, T. et al. Proc. Natl. Acad. Sci. USA 83, 5459-5463 (1986)) was cloned into the BamHI and EcoRI sites of the expression vector pGEX-2T. The SH2 domain including the additional C-terminal amino acids leucine-threonine-asparagine-serine-serine (SEQ ID NO: 10) was cloned by PCR techniques known to those skilled in the art to yield the expressed fusion protein GST-X-fyn.
(§3) The binding assays for the SH2 domains and pY peptides were performed in an ELISA-based 96 well plate assay. In Millipore 96 well filter plates, hydrophilic Durapore® (pore size 0.65um Cat. No. MADVN6550), was added 2 ul (50% suspension) of Protein-G Sepharose (available from Pharmacia of N.J. Cat. No. 17-0618-01) and either 2 ul of 2 mg/ml of MAB178. (for gp120/SH2 domain fusion proteins src, lck and hcp) or 0.25 ul of anti-GST polyclonal antisera (available from Pharmacia of N.J.) (for GST/SH2 domain fusion proteins fyn, Grb2, p85 and SH-PTP2). 10 pmol of the subject SH2 domain fusion protein were added to their respective wells. The volume was brought to 100 ul with TBS-T (tris buffered saline plus 0.05% tween-20), incubated and shaken at room trmperature for 1 hr. then washed 1x with TBS-T (4°C). 90 ul of TBS-T were then added to each well. Specific pY biotinylated peptides were diluted to a concentration of 1.0 uM in TBS-T (these peptides can be obtained from Bachem Bioscience of Pennsylvania, Genosys Biotechnologies of Texas and California Peptide Research of California). 10 ul was aliquoted per well to yield a final concentration of 0.1 uM (approx, the Kd for each SH2 domain/peptide pair) and a final volume of 100 ul. The assay plates were incubated until equilibrium binding was attained (3 hr at 4°C with shaking). The assay plates were washed 2 X per well TBS-T (4°C), then 100 ul of SABC (Strepavidin biotinylated horseradish peroxidase complex, available from the Zymed corporation of California cat. no. 93-0043, 1 drop reagent A (streptavidin) and 1 drop of reagent B (AH-biotin conjugated-horseradish peroxidase) per 10 ml of TBS-T, incubated at 37°C for 30 minutes, then cooled to 4°C) was added per well, then incubated at 4°C for 30-60 minutes. The plates were then washed 4 X with TBS-T (4°C) (250 ul/well)/wash). […]

For the next experiment, the target named is T2, human p85 SH2 domain (Homo sapiens, UniProt P27986).
T2 construct: SH2 domain of human p85 (amino acids 321-440); made in house; host or cells: E. coli (pGEX-3X)
Nature of the experiment: SH2 domain / pY peptide binding assay (ELISA-based, 96 well plate), p85 SH2. The settings on record: for Ki: Ki calculated from IC50 by the expanded equation, Table II; for IC50: cloned human SH2 domain fusion protein, 0.1 uM biotinylated pY peptide, Table I. As for the experimental part:
as §1, §2
Human p85 SH2 domain: The sequence encoding the SH2 domain of human p85 (amino acids 321-440) (Skolnik, E. et al., Cell 65, 83-90 (1991)) was cloned into the BamHI and EcoRI sites of the expression vector pGEX-3X. The SH2 domain including the additional C-terminal amino acids asparagine-serine-serine (SEQ ID NO: 11)was cloned by PCR techniques known to those skilled in the art to yield the expressed fusion protein GST-X-p85.
as §3, with “ul/well)/wash). 100 ul of 1 mg/ml OPD (o-phenyldiamine, Sigma Chemical Corporation, St. Louis Missouri) in Citrate Buffer was added per well.” for “ul/well)/wash).”

T2 sequence (P27986 321-440): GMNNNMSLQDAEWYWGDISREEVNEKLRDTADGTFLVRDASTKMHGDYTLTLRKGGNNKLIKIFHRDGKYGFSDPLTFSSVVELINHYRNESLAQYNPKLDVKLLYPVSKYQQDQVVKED
T1 sequence (P06241 143-252): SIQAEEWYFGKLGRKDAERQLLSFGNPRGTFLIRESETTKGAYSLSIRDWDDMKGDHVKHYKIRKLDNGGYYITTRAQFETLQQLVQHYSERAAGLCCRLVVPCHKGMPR

As for “4-acetamido-benzamido-trans-4-methyl-cyclohexyl-N-1-(amino-R-2-(methoxy methyl)-pyrrolidine) carboxamide [Compound 8]”, on human fyn SH2 domain, the Ki is more than 1000 µM and the IC50 was more than 300 µM. Moreover, on human p85 SH2 domain, the Ki was more than 1000 µM and the IC50 is more than 300 µM.
Consider `Cc1nnc(SCC2=C(C(=O)O)N3C(=O)[C@@H](NC(=O)C(N)c4ccc(C(=O)O)cc4)[C@H]3SC2)s1` (stereo partly drawn) [Compound 1, 7-[D,L-α-Amino-α-(4-carboxyphenyl)acetamido]-3-[2-(5-methyl-1,3,4-thiadiazolyl)thiomethyl]Δ^3-cephem-4-carboxylic Acid], for which the Ki on human fyn SH2 domain and on human p85 SH2 domain was more than 1000 µM in each case. In addition, the IC50 at human fyn SH2 domain and on human p85 SH2 domain was more than 300 µM in each case.
In the case of `N[C@@H](Cc1cc(Br)c(Oc2ccc(O)c(Cc3ccc(O)nn3)c2)c(Br)c1)C(=O)O` [Compound 2, L-3,5-Dibromo-3'-(6-oxo-3(1H)-pyridazinylmethyl)-thyronine], on human fyn SH2 domain, the inhibition constant Ki is more than 1000 µM and the IC50 is more than 300 µM. Moreover, at human p85 SH2 domain, the Ki is more than 1000 µM and the IC50 was more than 300 µM.
As to `Cc1nc2sc3c(c2c2[nH][nH]c(=O)c12)CCC1(C3)OCCO1` [Compound 3, 8,8-Ethylenedioxy-2,3,7,8,9,10-hexahydro-4-methyl-1H-benzo[b]thieno[2,3-b]pyrazolo[3,4-d]pyridin-3-one], the Ki at human fyn SH2 domain and at human p85 SH2 domain was more than 1000 µM in each case. Besides, the IC50 on human fyn SH2 domain and at human p85 SH2 domain was more than 300 µM each time.
Regarding `Cc1ccc(C(=O)c2ccc(C(=O)c3ccc(CC=O)cc3)cc2)cc1` [Compound 4, 4-[4-(4-Methylbenzoyl)benzoyl]phenylacetaldehyde], on human fyn SH2 domain, the Ki was more than 1000 µM and the concentration for half-maximal inhibition (IC50) was more than 300 µM. Moreover, on human p85 SH2 domain, the Ki is more than 1000 µM and the IC50 is more than 300 µM.
On to `Cc1nc2sc3c(c2c2c1c(=O)[nH]n2C)CCC1(C3)OCCO1` [Compound 5, 1,4-Dimethyl-8,8-ethylenedioxy-2,3,7,8,9,10-hexahydro-1H-benzo[b]thieno[2,3-b]pyrazolo[3,4-d]pyridin-3-one], for which, at human fyn SH2 domain, the Ki was more than 1000 µM and the 50% inhibitory concentration (IC50) was more than 300 µM. On human p85 SH2 domain, the Ki is more than 1000 µM and the 50% inhibitory concentration (IC50) is more than 300 µM.
With `CCCCCCNC(=O)[C@H]1CC[C@H](CNC(=O)c2ccc([N+](=O)[O-])cc2)CC1` [Compound 7, 4-nitro-benzamido-trans-4-methyl-cyclohexyl-N-hexyl carboxamide], on human fyn SH2 domain, the Ki was more than 1000 µM and the IC50 was more than 300 µM. In addition, on human p85 SH2 domain, the Ki was more than 1000 µM and the IC50 is more than 300 µM.
As to `CCCNC(=O)[C@H]1CC[C@H](CNC(=O)/C=C/c2ccc(C=O)cc2)CC1` [Compound 9, 4-formyl-E-cinnamido-trans-4-methyl-cyclohexyl-N-(propyl) carboxamide], on human fyn SH2 domain, the Ki was more than 1000 µM and the 50% inhibitory concentration (IC50) is more than 300 µM. Further, on human p85 SH2 domain, the Ki was more than 1000 µM and the 50% inhibitory concentration (IC50) is more than 300 µM.
For the compound `Cc1nc2sc3c(c2c2[nH][nH]c(=O)c12)CCCC3` [Compound 10, 2,3,7,8,9,10-Hexahydro-4-methyl-1H-benzo[b]thieno[2,3-b]pyrazolo[3,4-d]pyridin-3-one], at human fyn SH2 domain, the inhibition constant (Ki) is more than 1000 µM and the IC50 is more than 300 µM. At human p85 SH2 domain, the Ki was more than 1000 µM and the half-maximal inhibitory concentration (IC50) was more than 300 µM.
